What was measured:
HT-29 [1] = test: Cytotoxicity against human HT-29 cells assessed as cell growth at 10 uM after 48 hrs by sulforhodamine B assay relative to control; format: functional; settings: HT-29, 48 h, read-out: Activity
SNB-75 = test: Cytotoxicity against human SNB75 cells assessed as cell growth at 100 uM after 48 hrs by sulforhodamine B assay relative to control; format: functional; settings: SNB-75, 48 h, read-out: Activity
HT-29 [2] = test: Cytotoxicity against human HT-29 cells assessed as cell growth at 1 uM after 48 hrs by sulforhodamine B assay relative to control; format: functional; settings: HT-29, 48 h, read-out: Activity
HCT-116 = test: Cytotoxicity against human HCT116 cells assessed as cell growth at 10 uM after 48 hrs by sulforhodamine B assay relative to control; format: functional; settings: HCT-116, 48 h, read-out: Activity
NCI-H322M = test: Cytotoxicity against human NCI-H322M cells assessed as cell growth at 1 uM after 48 hrs by sulforhodamine B assay relative to control; format: functional; settings: read-out: Activity
NCI-H522 = test: Cytotoxicity against human NCI-H522 cells assessed as cell growth at 10 uM after 48 hrs by sulforhodamine B assay relative to control; format: functional; settings: NCI-H522, 48 h, read-out: Activity
SF-268 = test: Cytotoxicity against human SF268 cells assessed as cell growth at 0.01 uM after 48 hrs by sulforhodamine B assay relative to control; format: functional; settings: SF-268, 48 h, read-out: Activity
M14 = test: Cytotoxicity against human M14 cells assessed as cell growth at 1 uM after 48 hrs by sulforhodamine B assay relative to control; format: functional; settings: M14, 48 h, read-out: Activity
OVCAR-3 [3] = test: Cytotoxicity against human OVCAR3 cells assessed as cell growth at 1 uM after 48 hrs by sulforhodamine B assay relative to control; format: functional; settings: OVCAR-3, 48 h, read-out: Activity
HOP-62 = test: Cytotoxicity against human HOP62 cells assessed as cell growth at 100 uM after 48 hrs by sulforhodamine B assay relative to control; format: functional; settings: HOP-62, 48 h, read-out: Activity
HL-60(TB) = test: Cytotoxicity against human HL-60(TB) cells assessed as cell growth at 100 uM after 48 hrs by sulforhodamine B assay relative to control; format: functional; settings: HL-60, 48 h, read-out: Activity
MOLT-4 = test: Cytotoxicity against human MOLT4 cells assessed as cell growth at 100 uM after 48 hrs by sulforhodamine B assay relative to control; format: functional; settings: MOLT-4, 48 h, read-out: Activity
SK-MEL-5 [4] = test: Cytotoxicity against human SK-MEL-5 cells assessed as growth inhibition after 48 hrs by sulforhodamine B assay; format: functional; settings: SK-MEL-5, 48 h
MCF7 [5] = test: Cytotoxicity against human MCF7 cells assessed as cell growth at 0.1 uM after 48 hrs by sulforhodamine B assay relative to control; format: functional; settings: MCF7, 48 h, read-out: Activity
SK-MEL-5 [6] = test: Cytotoxicity against human SK-MEL-5 cells assessed as cell growth at 0.1 uM after 48 hrs by sulforhodamine B assay relative to control; format: functional; settings: SK-MEL-5, 48 h, read-out: Activity
SW-620 [7] = test: Cytotoxicity against human SW620 cells assessed as cell growth at 10 uM after 48 hrs by sulforhodamine B assay relative to control; format: functional; settings: SW-620, 48 h, read-out: Activity
SW-620 [8] = test: Cytotoxicity against human SW620 cells assessed as cell growth at 100 uM after 48 hrs by sulforhodamine B assay relative to control; format: functional; settings: SW-620, 48 h, read-out: Activity
SN12C = test: Cytotoxicity against human SN12C cells assessed as cell growth at 0.1 uM after 48 hrs by sulforhodamine B assay relative to control; format: functional; settings: read-out: Activity
BT-549 = test: Cytotoxicity against human BT549 cells assessed as growth inhibition after 48 hrs by sulforhodamine B assay; format: functional; settings: BT-549, 48 h
IGROV-1 [9] = test: Cytotoxicity against human IGROV1 cells assessed as cell growth at 1 uM after 48 hrs by sulforhodamine B assay relative to control; format: functional; settings: IGROV-1, 48 h, read-out: Activity
OVCAR-3 [10] = test: Cytotoxicity against human OVCAR3 cells assessed as cell growth at 0.1 uM after 48 hrs by sulforhodamine B assay relative to control; format: functional; settings: OVCAR-3, 48 h, read-out: Activity
CCRF-CEM [11] = test: Cytotoxicity against human CCRF-CEM cells assessed as cell growth at 10 uM after 48 hrs by sulforhodamine B assay relative to control; format: functional; settings: read-out: Activity
SW-620 [12] = test: Cytotoxicity against human SW620 cells assessed as cell growth at 0.01 uM after 48 hrs by sulforhodamine B assay relative to control; format: functional; settings: SW-620, 48 h, read-out: Activity
SK-MEL-28 [13] = test: Cytotoxicity against human SK-MEL-28 cells assessed as growth inhibition after 48 hrs by sulforhodamine B assay; format: functional; settings: SK-MEL-28, 48 h
CCRF-CEM [14] = test: Cytotoxicity against human CCRF-CEM cells assessed as cell growth at 0.01 uM after 48 hrs by sulforhodamine B assay relative to control; format: functional; settings: read-out: Activity
SNB-19 = test: Cytotoxicity against human SNB19 cells assessed as cell growth at 0.1 uM after 48 hrs by sulforhodamine B assay relative to control; format: functional; settings: SNB-19, 48 h, read-out: Activity
COLO 205 = test: Cytotoxicity against human COLO205 cells assessed as cell growth at 100 uM after 48 hrs by sulforhodamine B assay relative to control; format: functional; settings: COLO 205, 48 h, read-out: Activity
MCF7 [15] = test: Cytotoxicity against human MCF7 cells assessed as growth inhibition after 48 hrs by MTT assay; format: functional, cell-based; settings: MCF7, 48 h
SK-MEL-28 [16] = test: Cytotoxicity against human SK-MEL-28 cells assessed as cell growth at 10 uM after 48 hrs by sulforhodamine B assay relative to control; format: functional; settings: SK-MEL-28, 48 h, read-out: Activity
UACC-62 = test: Cytotoxicity against human UACC62 cells assessed as cell growth at 0.1 uM after 48 hrs by sulforhodamine B assay relative to control; format: functional; settings: UACC-62, 48 h, read-out: Activity
Malme-3M = test: Cytotoxicity against human MALME-3M cells assessed as cell growth at 0.1 uM after 48 hrs by sulforhodamine B assay relative to control; format: functional; settings: read-out: Activity
OVCAR-4 = test: Cytotoxicity against human OVCAR4 cells assessed as growth inhibition after 48 hrs by sulforhodamine B assay; format: functional; settings: OVCAR-4, 48 h
IGROV-1 [17] = test: Cytotoxicity against human IGROV1 cells assessed as cell growth at 0.1 uM after 48 hrs by sulforhodamine B assay relative to control; format: functional; settings: IGROV-1, 48 h, read-out: Activity
Hs-578T = test: Cytotoxicity against human Hs 578T cells assessed as cell growth at 1 uM after 48 hrs by sulforhodamine B assay relative to control; format: functional; settings: read-out: Activity
DU-145 = test: Cytotoxicity against human DU145 cells assessed as cell growth at 100 uM after 48 hrs by sulforhodamine B assay relative to control; format: functional; settings: DU-145, 48 h, read-out: Activity
RXF 393 = test: Cytotoxicity against human RXF393 cells assessed as cell growth at 10 uM after 48 hrs by sulforhodamine B assay relative to control; format: functional; settings: RXF 393, 48 h, read-out: Activity

## COc1ccc(-c2cc(/C=C/C(=O)c3ccc(N)cc3)[nH]n2)cc1
HT-29 [1]
  growth at 10 µM: -10%
SNB-75
  growth at 100 µM: -96%
HT-29 [2]
  growth at 1 µM: 97%
HCT-116
  growth at 10 µM: -53%
NCI-H322M
  growth at 1 µM: 69%
NCI-H522
  growth at 10 µM: -70%
SF-268
  growth at 0.01 µM: 95%
M14
  growth at 1 µM: 105%
OVCAR-3 [3]
  growth at 1 µM: 63%
HOP-62
  growth at 100 µM: -60%
HL-60(TB)
  growth at 100 µM: -47%
MOLT-4
  growth at 100 µM: -47%
SK-MEL-5 [4]
  GI50: 2710 nM
  LC50 (concentration killing 50% of cells): 30400 nM
  TGI: 9250 nM
MCF7 [5]
  growth at 0.1 µM: 94%
SK-MEL-5 [6]
  growth at 0.1 µM: 90%
SW-620 [7]
  growth at 10 µM: -26%
SW-620 [8]
  growth at 100 µM: -58%
SN12C
  growth at 0.1 µM: 94%
BT-549
  GI50: 1740 nM
  LC50 (concentration killing 50% of cells): 36300 nM
  TGI: 4780 nM
IGROV-1 [9]
  growth at 1 µM: 89%
OVCAR-3 [10]
  growth at 0.1 µM: 96%
CCRF-CEM [11]
  growth at 10 µM: -27%
SW-620 [12]
  growth at 0.01 µM: 100%
SK-MEL-28 [13]
  GI50: 1870 nM
  LC50: 8570 nM
  TGI: 4010 nM
CCRF-CEM [14]
  growth at 0.01 µM: 99%
SNB-19
  growth at 0.1 µM: 89%
COLO 205
  growth at 100 µM: -74%
MCF7 [15]
  IC50: 800 nM
SK-MEL-28 [16]
  growth at 10 µM: -60%
UACC-62
  growth at 0.1 µM: 97%
Malme-3M
  growth at 0.1 µM: 86%
OVCAR-4
  GI50: 1080 nM
  LC50: 51200 nM
  TGI: 8010 nM
IGROV-1 [17]
  growth at 0.1 µM: 91%
Hs-578T
  growth at 1 µM: 93%
DU-145
  growth at 100 µM: -100%
RXF 393
  growth at 10 µM: -47%

## COc1ccc(C(=O)/C=C/c2cc(-c3ccc(OC)c(OC)c3)n[nH]2)cc1OC
HT-29 [1]
  growth at 10 µM: -28%
SNB-75
  growth at 100 µM: -82%
HT-29 [2]
  growth at 1 µM: 63%
HCT-116
  growth at 10 µM: -69%
NCI-H322M
  growth at 1 µM: 94%
NCI-H522
  growth at 10 µM: -56%
SF-268
  growth at 0.01 µM: 96%
M14
  growth at 1 µM: 92%
OVCAR-3 [3]
  growth at 1 µM: 88%
HOP-62
  growth at 100 µM: -13%
HL-60(TB)
  growth at 100 µM: 1%
SK-MEL-5 [4]
  GI50: 1580 nM
  TGI: 2960 nM
MCF7 [5]
  growth at 0.1 µM: 94%
SK-MEL-5 [6]
  growth at 0.1 µM: 96%
SW-620 [7]
  growth at 10 µM: -24%
SW-620 [8]
  growth at 100 µM: -27%
SN12C
  growth at 0.1 µM: 98%
BT-549
  GI50: 1440 nM
  TGI: 2920 nM
IGROV-1 [9]
  growth at 1 µM: 94%
OVCAR-3 [10]
  growth at 0.1 µM: 109%
CCRF-CEM [11]
  growth at 10 µM: -5%
SW-620 [12]
  growth at 0.01 µM: 96%
SK-MEL-28 [13]
  GI50: 1820 nM
  TGI: 4820 nM
CCRF-CEM [14]
  growth at 0.01 µM: 99%
SNB-19
  growth at 0.1 µM: 91%
COLO 205
  growth at 100 µM: -70%
MCF7 [15]
  IC50: 800 nM
SK-MEL-28 [16]
  growth at 10 µM: -38%
UACC-62
  growth at 0.1 µM: 96%
Malme-3M
  growth at 0.1 µM: 106%
OVCAR-4
  GI50: 1920 nM
  TGI: 8150 nM
IGROV-1 [17]
  growth at 0.1 µM: 104%
Hs-578T
  growth at 1 µM: 87%
DU-145
  growth at 100 µM: -100%
RXF 393
  growth at 10 µM: -84%

## COc1cc(-c2cc(/C=C/C(=O)c3ccc(N)cc3)[nH]n2)cc(OC)c1OC
HT-29 [1]
  growth at 10 µM: -38%
HT-29 [2]
  growth at 1 µM: 82%
HCT-116
  growth at 10 µM: -78%
NCI-H322M
  growth at 1 µM: 94%
NCI-H522
  growth at 10 µM: -51%
SF-268
  growth at 0.01 µM: 99%
M14
  growth at 1 µM: 90%
OVCAR-3 [3]
  growth at 1 µM: 79%
HOP-62
  growth at 100 µM: -98%
HL-60(TB)
  growth at 100 µM: -12%
MOLT-4
  growth at 100 µM: -20%
SK-MEL-5 [4]
  GI50: 1650 nM
  LC50 (concentration killing 50% of cells): 5690 nM
  TGI: 3060 nM
MCF7 [5]
  growth at 0.1 µM: 91%
SK-MEL-5 [6]
  growth at 0.1 µM: 95%
SW-620 [7]
  growth at 10 µM: -20%
SW-620 [8]
  growth at 100 µM: -40%
SN12C
  growth at 0.1 µM: 99%
BT-549
  GI50: 1380 nM
  LC50 (concentration killing 50% of cells): 5760 nM
  TGI: 2820 nM
IGROV-1 [9]
  growth at 1 µM: 100%
OVCAR-3 [10]
  growth at 0.1 µM: 110%
CCRF-CEM [11]
  growth at 10 µM: -22%
SW-620 [12]
  growth at 0.01 µM: 95%
SK-MEL-28 [13]
  GI50: 1860 nM
  LC50: 8930 nM
  TGI: 4080 nM
CCRF-CEM [14]
  growth at 0.01 µM: 96%
SNB-19
  growth at 0.1 µM: 94%
COLO 205
  growth at 100 µM: -78%
MCF7 [15]
  IC50: 1600 nM
SK-MEL-28 [16]
  growth at 10 µM: -57%
UACC-62
  growth at 0.1 µM: 99%
Malme-3M
  growth at 0.1 µM: 102%
OVCAR-4
  GI50: 1400 nM
  LC50: 23700 nM
  TGI: 5440 nM
IGROV-1 [17]
  growth at 0.1 µM: 108%
Hs-578T
  growth at 1 µM: 87%
DU-145
  growth at 100 µM: -98%
RXF 393
  growth at 10 µM: -64%
